Positions of bridges follow the written chain, without caps; N, C: chain ends. Residues, ends and D or L forms follow the SMILES beside them.
Tests used:
Assay in all cases: cell-based
hNav1.3 = hNav1.3 (Homo sapiens, UniProt Q9NY46); conditions: IonWorks Quattro, use-dependent protocol, hNav1.3; read-out: IWQ Use Nav1.3
hNav1.7 = hNav1.7 (Homo sapiens, UniProt Q15858); assay type: cell-based; conditions: IonWorks Quattro, use-dependent protocol, hNav1.7; read-out: IWQ Use Nav1.7
hNav1.5 = hNav1.5 (Homo sapiens, UniProt Q14524); conditions: IonWorks Quattro, use-dependent protocol, hNav1.5; read-out: IWQ Use Nav1.5
hNav1.5, sequence (Q14524 whole entry, looked up): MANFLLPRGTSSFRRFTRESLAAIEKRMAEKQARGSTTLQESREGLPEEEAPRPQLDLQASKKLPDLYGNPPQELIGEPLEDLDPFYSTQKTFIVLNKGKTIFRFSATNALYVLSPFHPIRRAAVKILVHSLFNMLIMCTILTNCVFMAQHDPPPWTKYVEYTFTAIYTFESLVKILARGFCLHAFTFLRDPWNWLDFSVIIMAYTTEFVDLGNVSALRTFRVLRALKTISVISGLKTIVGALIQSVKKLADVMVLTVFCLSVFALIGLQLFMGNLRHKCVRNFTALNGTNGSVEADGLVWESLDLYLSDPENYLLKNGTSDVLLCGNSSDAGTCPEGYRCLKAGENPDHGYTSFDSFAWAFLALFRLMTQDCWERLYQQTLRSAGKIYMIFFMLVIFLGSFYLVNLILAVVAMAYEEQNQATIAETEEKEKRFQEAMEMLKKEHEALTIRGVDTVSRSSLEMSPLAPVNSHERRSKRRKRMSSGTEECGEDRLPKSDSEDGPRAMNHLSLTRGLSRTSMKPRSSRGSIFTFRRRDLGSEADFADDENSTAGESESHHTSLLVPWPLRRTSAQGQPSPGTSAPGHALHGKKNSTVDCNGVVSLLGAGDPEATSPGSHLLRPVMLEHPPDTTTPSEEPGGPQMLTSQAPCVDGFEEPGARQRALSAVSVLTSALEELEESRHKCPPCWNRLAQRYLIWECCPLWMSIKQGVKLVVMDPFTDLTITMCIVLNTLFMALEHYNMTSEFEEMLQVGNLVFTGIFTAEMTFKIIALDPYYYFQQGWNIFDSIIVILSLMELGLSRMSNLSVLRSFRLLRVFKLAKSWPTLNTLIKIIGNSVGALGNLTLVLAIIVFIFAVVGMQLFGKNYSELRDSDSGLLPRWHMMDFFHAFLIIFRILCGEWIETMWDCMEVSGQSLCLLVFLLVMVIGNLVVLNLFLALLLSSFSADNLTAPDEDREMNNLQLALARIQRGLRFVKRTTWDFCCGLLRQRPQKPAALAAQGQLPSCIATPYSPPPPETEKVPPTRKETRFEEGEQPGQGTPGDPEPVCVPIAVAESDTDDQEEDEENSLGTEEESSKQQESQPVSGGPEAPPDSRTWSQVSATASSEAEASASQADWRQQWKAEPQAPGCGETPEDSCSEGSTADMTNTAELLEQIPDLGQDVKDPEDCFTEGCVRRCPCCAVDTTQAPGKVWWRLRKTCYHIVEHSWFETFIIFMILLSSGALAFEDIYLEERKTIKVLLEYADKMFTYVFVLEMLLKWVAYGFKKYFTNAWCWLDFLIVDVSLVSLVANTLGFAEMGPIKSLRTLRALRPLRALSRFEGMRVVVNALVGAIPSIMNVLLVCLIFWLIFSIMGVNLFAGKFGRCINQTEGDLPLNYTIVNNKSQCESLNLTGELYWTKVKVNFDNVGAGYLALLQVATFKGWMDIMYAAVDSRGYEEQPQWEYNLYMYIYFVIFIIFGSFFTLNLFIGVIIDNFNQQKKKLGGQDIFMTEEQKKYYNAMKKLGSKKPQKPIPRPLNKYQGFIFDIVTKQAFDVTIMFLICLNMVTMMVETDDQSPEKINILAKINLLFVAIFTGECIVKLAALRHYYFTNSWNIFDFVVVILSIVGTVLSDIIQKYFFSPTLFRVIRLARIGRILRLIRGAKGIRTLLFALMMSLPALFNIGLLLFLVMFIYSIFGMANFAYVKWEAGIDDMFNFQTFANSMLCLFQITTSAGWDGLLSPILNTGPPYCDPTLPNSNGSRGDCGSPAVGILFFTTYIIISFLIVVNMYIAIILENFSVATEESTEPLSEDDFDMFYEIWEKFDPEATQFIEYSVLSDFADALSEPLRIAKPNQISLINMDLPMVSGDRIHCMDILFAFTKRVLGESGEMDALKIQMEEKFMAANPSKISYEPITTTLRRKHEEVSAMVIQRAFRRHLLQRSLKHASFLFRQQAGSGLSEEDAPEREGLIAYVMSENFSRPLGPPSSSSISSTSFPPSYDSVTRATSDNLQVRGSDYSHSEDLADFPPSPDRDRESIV

hNav1.3, sequence (Q9NY46 whole entry, looked up): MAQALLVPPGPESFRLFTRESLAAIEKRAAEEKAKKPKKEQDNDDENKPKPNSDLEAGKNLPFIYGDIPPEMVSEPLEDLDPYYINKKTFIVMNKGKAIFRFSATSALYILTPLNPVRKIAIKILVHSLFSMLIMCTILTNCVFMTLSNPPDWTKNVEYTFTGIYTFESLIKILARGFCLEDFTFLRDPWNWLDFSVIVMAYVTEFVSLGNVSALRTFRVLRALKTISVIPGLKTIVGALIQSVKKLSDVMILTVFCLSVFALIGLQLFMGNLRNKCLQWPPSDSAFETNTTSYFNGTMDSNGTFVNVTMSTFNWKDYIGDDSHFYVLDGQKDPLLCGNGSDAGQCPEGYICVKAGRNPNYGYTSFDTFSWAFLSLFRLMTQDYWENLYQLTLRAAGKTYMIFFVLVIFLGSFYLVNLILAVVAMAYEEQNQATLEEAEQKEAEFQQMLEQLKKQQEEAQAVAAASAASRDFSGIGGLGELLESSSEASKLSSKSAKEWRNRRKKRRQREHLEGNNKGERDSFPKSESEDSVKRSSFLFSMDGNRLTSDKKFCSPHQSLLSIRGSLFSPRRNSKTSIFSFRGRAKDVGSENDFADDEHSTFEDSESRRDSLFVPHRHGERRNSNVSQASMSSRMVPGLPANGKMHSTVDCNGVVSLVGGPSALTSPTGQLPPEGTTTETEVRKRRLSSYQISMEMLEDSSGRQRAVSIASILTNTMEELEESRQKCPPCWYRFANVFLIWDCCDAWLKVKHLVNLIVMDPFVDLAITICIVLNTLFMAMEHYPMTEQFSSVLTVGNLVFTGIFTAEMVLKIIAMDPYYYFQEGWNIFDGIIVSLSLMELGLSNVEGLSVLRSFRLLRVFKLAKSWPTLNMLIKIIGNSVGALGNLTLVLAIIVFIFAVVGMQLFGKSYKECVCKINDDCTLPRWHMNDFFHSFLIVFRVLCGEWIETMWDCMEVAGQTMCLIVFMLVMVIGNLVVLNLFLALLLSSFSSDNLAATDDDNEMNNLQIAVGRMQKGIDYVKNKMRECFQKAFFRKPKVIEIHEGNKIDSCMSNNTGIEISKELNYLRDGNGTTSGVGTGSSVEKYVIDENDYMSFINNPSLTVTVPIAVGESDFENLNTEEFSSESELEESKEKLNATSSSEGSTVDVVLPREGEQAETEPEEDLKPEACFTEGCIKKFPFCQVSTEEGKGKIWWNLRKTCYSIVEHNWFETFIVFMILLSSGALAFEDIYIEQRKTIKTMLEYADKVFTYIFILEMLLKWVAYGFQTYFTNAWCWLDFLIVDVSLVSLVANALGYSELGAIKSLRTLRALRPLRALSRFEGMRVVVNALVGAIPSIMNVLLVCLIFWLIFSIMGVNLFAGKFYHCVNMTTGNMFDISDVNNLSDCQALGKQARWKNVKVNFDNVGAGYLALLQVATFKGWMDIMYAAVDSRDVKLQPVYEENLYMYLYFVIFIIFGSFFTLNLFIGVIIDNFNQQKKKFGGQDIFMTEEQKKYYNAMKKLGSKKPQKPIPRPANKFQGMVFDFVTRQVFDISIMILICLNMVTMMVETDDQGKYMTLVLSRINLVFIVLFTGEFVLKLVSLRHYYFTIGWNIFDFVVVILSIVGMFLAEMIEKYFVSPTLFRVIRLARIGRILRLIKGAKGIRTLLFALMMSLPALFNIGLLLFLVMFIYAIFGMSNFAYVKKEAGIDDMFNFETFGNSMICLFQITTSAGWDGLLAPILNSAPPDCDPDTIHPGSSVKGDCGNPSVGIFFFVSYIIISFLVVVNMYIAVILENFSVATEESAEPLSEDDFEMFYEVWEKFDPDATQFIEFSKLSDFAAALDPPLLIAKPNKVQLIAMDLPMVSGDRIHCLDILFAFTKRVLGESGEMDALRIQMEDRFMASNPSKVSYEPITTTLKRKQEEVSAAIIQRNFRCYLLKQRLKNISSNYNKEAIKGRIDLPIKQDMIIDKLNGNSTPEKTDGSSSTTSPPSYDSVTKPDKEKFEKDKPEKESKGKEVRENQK

Row | SMILES | IC50 (hNav1.3) [µM] | IC50 (hNav1.7) [µM] | IC50 (hNav1.5) [µM]
1 | CC[C@H](C)[C@@H]1NC(=O)[C@@H]2CSSC[C@@H]3NC(=O)[C@H](C(C)C)NC(=O)[C@H](CC(C)C)NC(=O)[C@H](CC(N)=O)NC(=O)[C@@H]4CCCN4C(=O)[C@H](CCCNC(=N)N)NC(=O)[C@H](CSSC[C@H](NC(=O)[C@@H](N)CC(=O)O)C(=O)N[C@@H](CC(C)C)C(=O)NCC(=O)N[C@@H](CC(C)C)C(=O)N[C@@H](CC(C)C)C(=O)N[C@@H](CCCNC(=N)N)C(=O)N[C@@H](CCCCN)C(=O)N2)NC(=O)[C@H](CSSC[C@@H](C(=O)N[C@@H](CCCCN)C(=O)N[C@@H](Cc2ccc(O)cc2)C(=O)N[C@H](C(=O)N[C@@H](Cc2ccccc2)C(N)=O)C(C)C)NC(=O)[C@H](Cc2c[nH]c4ccccc24)NC(=O)[C@H](CCCCN)NC(=O)[C@H](Cc2c[nH]cn2)NC(=O)[C@H]([C@@H](C)O)NC(=O)[C@H](CCCNC(=N)N)NC(=O)[C@H](CO)NC3=O)NC(=O)[C@H](CCCCN)NC(=O)[C@H](CC(=O)O)NC(=O)[C@H](CC(N)=O)NC(=O)[C@H](CC(=O)O)NC(=O)[C@@H]2CCCN2C1=O [compound 661] (H-DCLGLLRKCIPDNDKCCRPNLVCSRTHKWCKYVF-NH2; disulfide 2-17, 9-23, 16-30) | 0.32 | 0.095 | > 5
2 | CC[C@H](C)[C@@H]1NC(=O)[C@@H]2CSSC[C@@H]3NC(=O)[C@H](C(C)C)NC(=O)[C@H](CC(C)C)NC(=O)[C@H](CC(N)=O)NC(=O)[C@@H]4CCCN4C(=O)[C@H](CCCNC(=N)N)NC(=O)[C@H](CSSC[C@H](NC(=O)[C@@H](N)CC(=O)O)C(=O)N[C@@H](CC(C)C)C(=O)NCC(=O)N[C@@H](Cc4cccs4)C(=O)N[C@@H](CC(C)C)C(=O)N[C@@H](CCCNC(=N)N)C(=O)N[C@@H](CCCCN)C(=O)N2)NC(=O)[C@H](CSSC[C@@H](C(=O)N[C@@H](CCCCN)C(=O)N[C@@H](Cc2ccc(O)cc2)C(=O)N[C@H](C(=O)N[C@@H](Cc2ccccc2)C(N)=O)C(C)C)NC(=O)[C@H](Cc2c[nH]c4ccccc24)NC(=O)[C@H](CCCCN)NC(=O)[C@H](Cc2c[nH]cn2)NC(=O)[C@H]([C@@H](C)O)NC(=O)[C@H](CCCNC(=N)N)NC(=O)[C@H](CO)NC3=O)NC(=O)[C@H](CCCCN)NC(=O)[C@H](CC(=O)O)NC(=O)[C@H](CC(N)=O)NC(=O)[C@H](CC(=O)O)NC(=O)[C@@H]2CCCN2C1=O [compound 662] | 0.068 | 0.022 | > 5
3 | CC[C@H](C)[C@@H]1NC(=O)[C@@H]2CSSC[C@@H]3NC(=O)[C@H](C(C)C)NC(=O)[C@H](CC(C)C)NC(=O)[C@H](CC(N)=O)NC(=O)[C@@H]4CCCN4C(=O)[C@H](CCCNC(=N)N)NC(=O)[C@H](CSSC[C@H](NC(=O)[C@@H](N)CC(=O)O)C(=O)N[C@@H](CC(C)C)C(=O)NCC(=O)N[C@@H](C4CCCC4)C(=O)N[C@@H](CC(C)C)C(=O)N[C@@H](CCCNC(=N)N)C(=O)N[C@@H](CCCCN)C(=O)N2)NC(=O)[C@H](CSSC[C@@H](C(=O)N[C@@H](CCCCN)C(=O)N[C@@H](Cc2ccc(O)cc2)C(=O)N[C@H](C(=O)N[C@@H](Cc2ccccc2)C(N)=O)C(C)C)NC(=O)[C@H](Cc2c[nH]c4ccccc24)NC(=O)[C@H](CCCCN)NC(=O)[C@H](Cc2c[nH]cn2)NC(=O)[C@H]([C@@H](C)O)NC(=O)[C@H](CCCNC(=N)N)NC(=O)[C@H](CO)NC3=O)NC(=O)[C@H](CCCCN)NC(=O)[C@H](CC(=O)O)NC(=O)[C@H](CC(N)=O)NC(=O)[C@H](CC(=O)O)NC(=O)[C@@H]2CCCN2C1=O [compound 663] | 0.24 | 0.059 | > 5
4 | CC[C@H](C)[C@@H]1NC(=O)[C@@H]2CSSC[C@@H]3NC(=O)[C@H](C(C)C)NC(=O)[C@H](CC(C)C)NC(=O)[C@H](CC(N)=O)NC(=O)[C@@H]4CCCN4C(=O)[C@H](CCCNC(=N)N)NC(=O)[C@H](CSSC[C@H](NC(=O)[C@@H](N)CC(=O)O)C(=O)N[C@@H](CC(C)C)C(=O)NCC(=O)N[C@@H](C4CCCCC4)C(=O)N[C@@H](CC(C)C)C(=O)N[C@@H](CCCNC(=N)N)C(=O)N[C@@H](CCCCN)C(=O)N2)NC(=O)[C@H](CSSC[C@@H](C(=O)N[C@@H](CCCCN)C(=O)N[C@@H](Cc2ccc(O)cc2)C(=O)N[C@H](C(=O)N[C@@H](Cc2ccccc2)C(N)=O)C(C)C)NC(=O)[C@H](Cc2c[nH]c4ccccc24)NC(=O)[C@H](CCCCN)NC(=O)[C@H](Cc2c[nH]cn2)NC(=O)[C@H]([C@@H](C)O)NC(=O)[C@H](CCCNC(=N)N)NC(=O)[C@H](CO)NC3=O)NC(=O)[C@H](CCCCN)NC(=O)[C@H](CC(=O)O)NC(=O)[C@H](CC(N)=O)NC(=O)[C@H](CC(=O)O)NC(=O)[C@@H]2CCCN2C1=O [compound 664] | 0.11 | 0.019 | > 5
5 | CC[C@H](C)[C@@H]1NC(=O)[C@@H]2CSSC[C@@H]3NC(=O)[C@H](C(C)C)NC(=O)[C@H](CC(C)C)NC(=O)[C@H](CC(N)=O)NC(=O)[C@@H]4CCCN4C(=O)[C@H](CCCNC(=N)N)NC(=O)[C@H](CSSC[C@H](NC(=O)[C@@H](N)CC(=O)O)C(=O)N[C@@H](CC(C)C)C(=O)NCC(=O)N[C@@H](Cc4ccc(C(=O)c5ccccc5)cc4)C(=O)N[C@@H](CC(C)C)C(=O)N[C@@H](CCCNC(=N)N)C(=O)N[C@@H](CCCCN)C(=O)N2)NC(=O)[C@H](CSSC[C@@H](C(=O)N[C@@H](CCCCN)C(=O)N[C@@H](Cc2ccc(O)cc2)C(=O)N[C@H](C(=O)N[C@@H](Cc2ccccc2)C(N)=O)C(C)C)NC(=O)[C@H](Cc2c[nH]c4ccccc24)NC(=O)[C@H](CCCCN)NC(=O)[C@H](Cc2c[nH]cn2)NC(=O)[C@H]([C@@H](C)O)NC(=O)[C@H](CCCNC(=N)N)NC(=O)[C@H](CO)NC3=O)NC(=O)[C@H](CCCCN)NC(=O)[C@H](CC(=O)O)NC(=O)[C@H](CC(N)=O)NC(=O)[C@H](CC(=O)O)NC(=O)[C@@H]2CCCN2C1=O [compound 665] | 0.03 | 0.23 | > 5
6 | CC[C@H](C)[C@@H]1NC(=O)[C@@H]2CSSC[C@@H]3NC(=O)[C@H](C(C)C)NC(=O)[C@H](CC(C)C)NC(=O)[C@H](CC(N)=O)NC(=O)[C@@H]4CCCN4C(=O)[C@H](CCCNC(=N)N)NC(=O)[C@H](CSSC[C@H](NC(=O)[C@@H](N)CC(=O)O)C(=O)N[C@@H](CC(C)C)C(=O)NCC(=O)N[C@@H](Cc4ccc(Cl)c(Cl)c4)C(=O)N[C@@H](CC(C)C)C(=O)N[C@@H](CCCNC(=N)N)C(=O)N[C@@H](CCCCN)C(=O)N2)NC(=O)[C@H](CSSC[C@@H](C(=O)N[C@@H](CCCCN)C(=O)N[C@@H](Cc2ccc(O)cc2)C(=O)N[C@H](C(=O)N[C@@H](Cc2ccccc2)C(N)=O)C(C)C)NC(=O)[C@H](Cc2c[nH]c4ccccc24)NC(=O)[C@H](CCCCN)NC(=O)[C@H](Cc2c[nH]cn2)NC(=O)[C@H]([C@@H](C)O)NC(=O)[C@H](CCCNC(=N)N)NC(=O)[C@H](CO)NC3=O)NC(=O)[C@H](CCCCN)NC(=O)[C@H](CC(=O)O)NC(=O)[C@H](CC(N)=O)NC(=O)[C@H](CC(=O)O)NC(=O)[C@@H]2CCCN2C1=O [compound 666] | 0.016 | 0.029 | 4.5
7 | CC[C@H](C)[C@@H]1NC(=O)[C@@H]2CSSC[C@@H]3NC(=O)[C@H](C(C)C)NC(=O)[C@H](CC(C)C)NC(=O)[C@H](CC(N)=O)NC(=O)[C@@H]4CCCN4C(=O)[C@H](CCCNC(=N)N)NC(=O)[C@H](CSSC[C@H](NC(=O)[C@@H](N)CC(=O)O)C(=O)N[C@@H](CC(C)C)C(=O)NCC(=O)N[C@@H](Cc4ccc(I)cc4)C(=O)N[C@@H](CC(C)C)C(=O)N[C@@H](CCCNC(=N)N)C(=O)N[C@@H](CCCCN)C(=O)N2)NC(=O)[C@H](CSSC[C@@H](C(=O)N[C@@H](CCCCN)C(=O)N[C@@H](Cc2ccc(O)cc2)C(=O)N[C@H](C(=O)N[C@@H](Cc2ccccc2)C(N)=O)C(C)C)NC(=O)[C@H](Cc2c[nH]c4ccccc24)NC(=O)[C@H](CCCCN)NC(=O)[C@H](Cc2c[nH]cn2)NC(=O)[C@H]([C@@H](C)O)NC(=O)[C@H](CCCNC(=N)N)NC(=O)[C@H](CO)NC3=O)NC(=O)[C@H](CCCCN)NC(=O)[C@H](CC(=O)O)NC(=O)[C@H](CC(N)=O)NC(=O)[C@H](CC(=O)O)NC(=O)[C@@H]2CCCN2C1=O [compound 667] | 0.017 | 0.12 | > 5
8 | CC[C@H](C)[C@@H]1NC(=O)[C@@H]2CSSC[C@@H]3NC(=O)[C@H](C(C)C)NC(=O)[C@H](CC(C)C)NC(=O)[C@H](CC(N)=O)NC(=O)[C@@H]4CCCN4C(=O)[C@H](CCCNC(=N)N)NC(=O)[C@H](CSSC[C@H](NC(=O)[C@@H](N)CC(=O)O)C(=O)N[C@@H](CC(C)C)C(=O)NCC(=O)N[C@@H](Cc4ccc(C(F)(F)F)cc4)C(=O)N[C@@H](CC(C)C)C(=O)N[C@@H](CCCNC(=N)N)C(=O)N[C@@H](CCCCN)C(=O)N2)NC(=O)[C@H](CSSC[C@@H](C(=O)N[C@@H](CCCCN)C(=O)N[C@@H](Cc2ccc(O)cc2)C(=O)N[C@H](C(=O)N[C@@H](Cc2ccccc2)C(N)=O)C(C)C)NC(=O)[C@H](Cc2c[nH]c4ccccc24)NC(=O)[C@H](CCCCN)NC(=O)[C@H](Cc2c[nH]cn2)NC(=O)[C@H]([C@@H](C)O)NC(=O)[C@H](CCCNC(=N)N)NC(=O)[C@H](CO)NC3=O)NC(=O)[C@H](CCCCN)NC(=O)[C@H](CC(=O)O)NC(=O)[C@H](CC(N)=O)NC(=O)[C@H](CC(=O)O)NC(=O)[C@@H]2CCCN2C1=O [compound 668] | 0.011 | 0.18 | 4.4
9 | CC[C@H](C)[C@@H]1NC(=O)[C@@H]2CSSC[C@@H]3NC(=O)[C@H](C(C)C)NC(=O)[C@H](CC(C)C)NC(=O)[C@H](CC(N)=O)NC(=O)[C@@H]4CCCN4C(=O)[C@H](CCCNC(=N)N)NC(=O)[C@H](CSSC[C@H](NC(=O)[C@@H](N)CC(=O)O)C(=O)N[C@@H](CC(C)C)C(=O)NCC(=O)N[C@@H](Cc4ccc(F)cc4)C(=O)N[C@@H](CC(C)C)C(=O)N[C@@H](CCCNC(=N)N)C(=O)N[C@@H](CCCCN)C(=O)N2)NC(=O)[C@H](CSSC[C@@H](C(=O)N[C@@H](CCCCN)C(=O)N[C@@H](Cc2ccc(O)cc2)C(=O)N[C@H](C(=O)N[C@@H](Cc2ccccc2)C(N)=O)C(C)C)NC(=O)[C@H](Cc2c[nH]c4ccccc24)NC(=O)[C@H](CCCCN)NC(=O)[C@H](Cc2c[nH]cn2)NC(=O)[C@H]([C@@H](C)O)NC(=O)[C@H](CCCNC(=N)N)NC(=O)[C@H](CO)NC3=O)NC(=O)[C@H](CCCCN)NC(=O)[C@H](CC(=O)O)NC(=O)[C@H](CC(N)=O)NC(=O)[C@H](CC(=O)O)NC(=O)[C@@H]2CCCN2C1=O [compound 669] | 0.037 | 0.091 | > 5

Source: US9340590B2 (priority 2011, dated 2016)
